Assay results: ChEMBL document CHEMBL5727399, “Ectonucleotidase inhibitors and methods of use thereof” (2019)
“And” between values parts separate entries of the source, which are not always exact repeats. Equal entries are not always repeated.

Target: 5'-nucleotidase (Homo sapiens, UniProt P21589)
Experiment: The concentration of inorganic phosphate was determined using a phosphate standard curve.

5'-nucleotidase, sequence (P21589 whole entry): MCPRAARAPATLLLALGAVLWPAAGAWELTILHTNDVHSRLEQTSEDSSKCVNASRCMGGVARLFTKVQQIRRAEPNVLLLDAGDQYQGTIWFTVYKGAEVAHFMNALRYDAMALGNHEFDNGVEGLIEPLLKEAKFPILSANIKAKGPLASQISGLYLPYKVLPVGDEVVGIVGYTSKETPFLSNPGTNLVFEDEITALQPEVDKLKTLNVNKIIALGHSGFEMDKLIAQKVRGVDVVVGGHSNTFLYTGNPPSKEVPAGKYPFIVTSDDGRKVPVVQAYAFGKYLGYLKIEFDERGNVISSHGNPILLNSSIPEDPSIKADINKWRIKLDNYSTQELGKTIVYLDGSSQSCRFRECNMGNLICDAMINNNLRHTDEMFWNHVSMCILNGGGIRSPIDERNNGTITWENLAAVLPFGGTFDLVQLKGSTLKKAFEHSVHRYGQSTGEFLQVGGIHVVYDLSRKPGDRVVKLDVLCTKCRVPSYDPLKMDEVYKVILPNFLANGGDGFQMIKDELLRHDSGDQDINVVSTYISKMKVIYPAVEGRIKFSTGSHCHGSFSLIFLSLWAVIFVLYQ

CCOC(=O)C(OC[C@H]1O[C@@H](n2cnc3c(NC(=O)OC(C)(C)C)nc(Cl)nc32)[C@@H](F)[C@@H]1O)P(=O)(O)O (single isomer, unassigned)
IC50: 2470 nM and 2950 nM

N#CCC(OC[C@H]1O[C@@H](n2cnc3c(N)nc(Cl)nc32)[C@@H](F)[C@@H]1O)(C(=O)O)C(=O)O
IC50: 1510 nM

N#Cc1cccc(CC(OC[C@H]2O[C@@H](n3cnc4c(N)nc(N=[N+]=[N-])nc43)[C@@H](F)[C@@H]2O)(C(=O)O)C(=O)O)c1
IC50: 1280 nM

CCOC(=O)C(Cc1ccc(OC(F)(F)F)cc1)(OC[C@H]1O[C@@H](n2cnc3c(N)nc(Cl)nc32)[C@@H](F)[C@@H]1O)C(=O)O (some centres not stated)
IC50: 718 nM

CCOC(=O)C(Cc1ccc(-c2ccccc2)cc1)(OC[C@H]1O[C@@H](n2cnc3c(N)nc(Cl)nc32)[C@@H](F)[C@@H]1O)C(=O)O (single isomer, unassigned)
IC50: 7260 nM and 8260 nM

[N-]=[N+]=N[C@H]1[C@@H](O)[C@H](n2cnc3c(N)nc(Cl)nc32)O[C@@H]1COC(C(=O)O)C(=O)O
IC50: > 50000 nM

CNC(=O)C(OC[C@H]1O[C@@H](n2cnc3c(N)nc(Cl)nc32)[C@@H](F)[C@@H]1O)P(=O)(O)O (some centres not stated)
IC50: 12000 nM

Nc1nc(Cl)nc2c1ncn2[C@@H]1O[C@H](COC(CCCCO)(C(=O)O)C(=O)O)[C@@H](O)[C@@H]1F
IC50: 1890 nM

O=C(O)C(OC[C@H]1O[C@@H](n2cnc3c(NCc4ccccc4)nc(Cl)nc32)[C@@H](F)[C@@H]1O)C(=O)O
IC50: 8780 nM

Nc1nc(Cl)nc2c1ncn2[C@@H]1O[C@H](COC(Cc2cnc(C(=O)O)s2)(C(=O)O)C(=O)O)[C@@H](O)[C@@H]1F
IC50: 602 nM

Nc1nc(Cl)nc2c1ncn2[C@@H]1O[C@H](COC(CC(=O)O)C(=O)O)[C@@H](O)[C@@H]1F (some centres not stated)
IC50: > 50000 nM

COC(=O)C(Cc1ccc(-c2ccccc2)cc1)(OC[C@H]1O[C@@H](n2cnc3c(N)nc(Cl)nc32)[C@@H](F)[C@@H]1O)C(=O)O (single isomer, unassigned)
IC50: 2860 nM and 3430 nM

Nc1nc(Cl)nc2c1ncn2[C@@H]1O[C@H](COC(CC(=O)O)(C(=O)O)C(=O)O)[C@@H](O)[C@@H]1F
IC50: 2560 nM

Nc1nc(Cl)nc2c1ncn2[C@@H]1O[C@H](COC(Cc2ccc(-c3ccccc3)cc2)(C(=O)O)C(=O)O)[C@@H](O)[C@@H]1F
IC50: 29 nM

Nc1nc(Cl)nc2c1ncn2[C@H]1C[C@H](O)[C@@H](COC(C(=O)O)C(=O)O)O1
IC50: > 50000 nM

CCOC(=O)C(OC[C@H]1O[C@@H](n2cnc3c(N)nc(Cl)nc32)[C@@H](F)[C@@H]1O)P(=O)(O)O (single isomer, unassigned)
IC50: 2790 nM and 8910 nM

N#Cc1ccc(CC(OC[C@H]2O[C@@H](n3cnc4c(N)nc(Cl)nc43)[C@@H](F)[C@@H]2O)(C(=O)O)C(=O)O)cc1F
IC50: 887 nM
